Data published in patent publication US20070172469A1, “Methods For Inhibiting Viral Replication In Vivo” (priority 2002, published 2007).
Where two headings read alike, the source gives them in different places.

Tests used:
AVA5 cells = assay: Actin mRNA level in AVA5 cells (nonspecific inhibitory activity); assay type: cell-based, human; details: 3 days, ADI-PEG20 0.01 IU/ml, alpha interferon 10 IU/ml, ribavirin 100 μM
[1] = Toxicity in AVA5 cells, neutral red dye uptake; details: human, AVA5 cells (HCV RNA replicating cell line derived from Huh7)
HCV [2] = assay: In vitro HCV RNA replication assay in AVA5 cells (dot blot); assay type: cell-based, Hepatitis C virus (HCV); details: for IC50 / IC90: HCV mRNA levels
[3] = cited from earlier work
HCV [4] = details: cited from earlier work
[5] = humans chronically infected with HCV

Molecule: NC(=O)c1ncn([C@@H]2O[C@H](CO)[C@@H](O)[C@H]2O)n1 [ribavirin, 1-β-D-ribo-furanosyl-1,2,4-trizole-3-carboxamide]
- mRNA % inhibition of actin (AVA5 cells): 98%
- CC50 at 3 days [1]: 74 µM
- IC50 (HCV [2]; Hepatitis C virus, 72 h, AVA5 cells, 3 days, read-out: IC50): > 10 µM
- IC90 (HCV [2]; Hepatitis C virus, 72 h, AVA5 cells, 3 days, read-out: IC90): > 10 µM
- inhibition at 100 µM (HCV [2]; Hepatitis C virus, Ava5, 72 h): 25%

Molecule: alpha interferon
- mRNA % inhibition of actin (AVA5 cells): 11%
- patients with influenza-like illness with fever, chills, myalgias and malaise ([3]; PEG and non PEG formulated versions): up to 82%
- patients with neuropsychiatric complications ([3]; depression, irritability, anxiety): ~20%
- alopecia ([3]; human, in vivo): ~5%
- bone marrow suppression with granulocytopenia, anemia or thrombocytopenia ([3]; human, in vivo): ~5%
- patients in whom effective (HCV [4]; [5]): ~50%
- treatment required to achieve a 50% reduction in HCV titers (HCV [4]; [5]): 3-6 months
- patients who initially responded to the therapy (HCV [4]; various clinical trials): approximately 40%
- responders who relapsed after the treatment ended (HCV [4]; various clinical trials): 70%
- % inhibition of HCV (HCV [2]; AVA5 cells, 3 days, ADI-PEG20 0.01 IU/ml, alpha interferon 10 IU/ml, ribavirin 100 μM): 92%
- IC50 (HCV [2]; AVA5 cells, 3 days): 2.1 IU/ml
- IC90 (HCV [2]; AVA5 cells, 3 days): 9.0 IU/ml
- SI (HCV [2]; selectivity index CC50/EC50, AVA5 cells): >4762
